Measurements reported in patent US20050119275A1, “Salt and crystal forms of (5-chloro-2-{2-[4-(4-fluoro-benzyl)-(2R,5S)-2,5-dimethyl-piperazin-1-yl]-2-oxo-ethoxy}-phenyl)-methanesulfonic acid” (Pfizer Inc., priority 2003, published 2005).

Tests used:
CCR1 [1] = molecular target: T1, CCR1 (Homo sapiens, UniProt P32246); test: Inhibition of MIP-1α (CCL3) binding to its receptor CCR1; conditions: CCR1 found on inflammatory and immunomodulatory cells; statement in words
T1 sequence (P32246 1-355): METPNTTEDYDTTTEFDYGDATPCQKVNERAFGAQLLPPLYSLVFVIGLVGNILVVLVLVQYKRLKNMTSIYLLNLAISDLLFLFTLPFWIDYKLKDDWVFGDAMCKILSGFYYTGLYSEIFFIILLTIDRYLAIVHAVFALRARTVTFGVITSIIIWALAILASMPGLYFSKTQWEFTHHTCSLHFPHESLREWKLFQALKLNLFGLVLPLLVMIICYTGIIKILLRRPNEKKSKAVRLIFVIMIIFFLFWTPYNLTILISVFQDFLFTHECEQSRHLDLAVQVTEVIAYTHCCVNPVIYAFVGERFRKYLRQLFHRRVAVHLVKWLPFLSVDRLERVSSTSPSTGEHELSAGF

CCR1 [2] = molecular target: T1, CCR1; test: Chemotaxis assay (Boyden chamber, MIP-1α induced migration); type: cell-based; parameters: THP-1 cells (ATCC TIB-202), primary human monocytes, or primary lymphocytes, isolated by standard techniques can then be added to the upper chambers; endogenous in cells; host or cells: THP-1 cells (ATCC TIB-202), primary human monocytes or primary lymphocytes; conditions: statement in words
Excerpt: The activity of the compounds of the invention can be assessed according to procedures know to those of ordinary skill in the art. Examples of recognized methods for determining CCR1 induced migration can be found in Coligan, J. E., Kruisbeek, A. M., Margulies, D. H., Shevach, E. M., Strober, W. editors: Current Protocols In Immunology, 6.12.1-6.12.3. (John Wiley and Sons, NY, 1991). One specific example of how to determine the activity of a compound for inhibiting migration is described in detail below.
The ability of compounds to inhibit the chemotaxis to various chemokines can be evaluated using standard 48 or 96 well Boyden Chambers with a 5 micron polycarbonate filter. […] The amount of agonist chosen is that determined to give the maximal amount of chemotaxis in this system (e.g., 1 nM for MIP-1α should be adequate). […]
After a suitable incubation period at 37 degrees centigrade (e.g. 3.5 hours for THP-1 cells, 90 minutes for primary monocytes), the chamber is removed, the cells in the upper chamber aspirated, the upper part of the filter wiped and the number of cells migrating can be determined according to the following method.
For THP-1 cells, the chamber (a 96 well variety manufactured by Neuroprobe) can be centrifuged to push cells off the lower chamber and the number of cells can be quantitated against a standard curve by a color change of the dye fluorocein diacetate. […]

Q: Which “inhibition of MIP-1α (CCL3) binding to its receptor CCR1” value (CCR1 [1]) does the source give for `C[C@@H]1CN(Cc2ccc(F)cc2)[C@@H](C)CN1C(=O)COc1ccc(Cl)cc1CS(=O)(=O)O` [(5-Chloro-2-{2-[4-(4-fluoro-benzyl)-(2R,5S)-2,5-dimethyl-piperazin-1-yl]-2-oxo-ethoxy}-phenyl)-methanesulfonic acid] here?
A: potent inhibitor

Q: What about the “inhibition of MIP-1α (and related chemokines) induced chemotaxis of THP-1 cells and human leukocytes” value (CCR1 [2]) of the same compound?
A: inhibits
